{"source": "patent US12370212B2", "about": "“Intradialytic use of sodium thiosulfate” (Hope Medical Enterprises, Inc., priority 2017, dated 2025)", "key": {"[1]": {"conditions": "during the first hour of hemodialysis; cited from earlier work"}, "[2]": {"conditions": "for Sulfate Concentration / Sulfide Concentration / Sulfite Concentration: degradation product, dialysate bicarbonate concentrate + sodium thiosulfate; for Measured Sodium Thiosulfate Concentration: dialysate bicarbonate concentrate, room temperature, expected 1.61 mg/mL", "method": "(§1) Concentration of thiosulfate in samples was assayed by ion chromatography. The ion chromatograph was equipped with an electrochemical conductivity detector and a Dionex IonPacAS12A analytical column. The sodium thiosulfate content in the samples tested was calculated against an external sodium thiosulfate standard. USP Sodium Thiosulfate Reference Standard (Item Number 1615107) was the testing standard (United States Pharmacopeia. Rockville, Maryland).\nExample 2 was performed to determine the stability of sodium thiosulfate in dialysate bicarbonate concentrate solution. At room temperature, 12500 mg sodium thiosulfate (50 mL of 250 mg/mL solution) was added to 7,700 mL of dialysate bicarbonate concentrate solution. The thiosulfate concentration of the dialysate bicarbonate concentrate solution was analyzed by ion chromatography 1) before addition of sodium thiosulfate; 2) 5 minutes after the addition of sodium thiosulfate; and 3) 2 hours after the addition of sodium thiosulfate."}, "[3]": {"conditions": "mixed dialysate exiting hemodialysis machine; expected 0.0608 mg/L", "method": "as §1\nThe machine was primed in bypass mode (dialysate and ultrafiltration rates set at zero) using normal saline."}, "[4]": {"conditions": "60 mg sample, 2 mL of 0.1 N hydrochloric acid, 80° C., approximately 24 hours", "method": "as §1"}, "[5]": {"conditions": "material safety data sheet; cited from earlier work"}, "[6]": {"conditions": "for Thiosulfate Concentration After the Addition of Sodium Thiosulfate (Time = 60 Min): average of two samples", "method": "as §1\nDialysate bicarbonate concentrate solution was prepared by adding 1 package of Centrisol© MB-330 Series Sodium Bicarbonate Concentrate powder (650 g) to 7.7 liters of purified water.\nThe hemodialysis machine mixed the bicarbonate concentrate solution and acid concentrate solution with the dilution ratio of 1 part of an acid concentrate solution, 1.72 parts of a bicarbonate concentrate solution, and 42.38 parts of purified water. The machine was primed in bypass mode (dialysate and ultrafiltration rates set at zero) using normal saline. After priming, the hemodialysis machine was run in “Therapy Mode” with the following settings: blood flow rate 300 mL/minute, dialysate flow rate 600 mL/minute, ultrafiltration rate 0 mL/minute.\nAn aqueous solution of sodium thiosulfate was prepared by dissolving 25 mg of sodium thiosulfate in 1 liter of purified water. […] This valve was placed in the dialysate tubing approximately eight inches upstream of the dialyzer (pre-filter). Two sampling ports were placed four inches upstream (pre-dialyzer sampling port) and ten inches downstream (post-dialyzer sampling port) from the dialyzer to collect samples of dialysate for […] assay by ion chromatography.\nThe infusion pump infused the sodium thiosulfate solution into the tubing through the valve at a rate of 250 mL/hour (4.16 mL/minute).\nNormal saline flowed into the dialyzer at a rate of 300 mL/minute from the Arterial line and exited the dialyzer through the Venous line. Samples of saline were collected from the venous side of the dialyzer."}}, "note": "Where two headings read alike, the source gives them in different places."}
{"smiles": "O=S(O)(O)=S", "note": "[Sodium Thiosulfate, sodium thiosulfate]", "values": [{"measurement": "decline of concentration of thiosulfate in the plasma", "setting": "[1]", "value": "over 60%"}, {"measurement": "Sulfate Concentration", "setting": "[2]; after 5 minutes", "value": 4.4, "unit": "µg/mL"}, {"measurement": "Sulfide Concentration", "setting": "[2]; after 5 minutes", "value": "<2.5", "unit": "µg/mL"}, {"measurement": "Sulfite Concentration", "setting": "[2]; after 5 minutes", "value": 5.9, "unit": "µg/mL"}, {"measurement": "Sulfate Concentration", "setting": "[2]; after 2 hours", "value": 4.3, "unit": "µg/mL"}, {"measurement": "Sulfide Concentration", "setting": "[2]; after 2 hours", "value": "<2.5", "unit": "µg/mL"}, {"measurement": "Sulfite Concentration", "setting": "[2]; after 2 hours", "value": 5.4, "unit": "µg/mL"}, {"measurement": "Measured Sodium Thiosulfate Concentration", "setting": "[2]; after 5 minutes", "value": 1.65, "unit": "mg/mL"}, {"measurement": "Measured Sodium Thiosulfate Concentration", "setting": "[2]; after 2 hours", "value": 1.65, "unit": "mg/mL"}, {"measurement": "stability in dialysate bicarbonate concentrate solution (in words)", "setting": "[2]; over 2 hours", "value": "stable"}, {"measurement": "Thiosulfate Concentration by Assay", "setting": "[3]", "value": 0.001824}, {"measurement": "percentage of thiosulfate degradation", "setting": "[4]", "value": 28.6, "unit": "%"}, {"measurement": "behaviour on contact with acid (in words)", "setting": "[5]", "value": "decomposes on contact with acid"}, {"measurement": "passage along or through dialyzer (in words)", "setting": "[6]; added to unspiked dialysate between hemodialysis machine and dialyzer membrane", "value": "can either pass along or pass through a dialyzer"}, {"measurement": "Thiosulfate Concentration After the Addition of Sodium Thiosulfate (Time = 60 Min)", "setting": "[6]; dialysate after dialyzer", "value": 2.20, "unit": "µM"}, {"measurement": "Thiosulfate Concentration After the Addition of Sodium Thiosulfate (Time = 60 Min)", "setting": "[6]; dialysate before dialyzer", "value": 4.04, "unit": "µM"}, {"measurement": "Thiosulfate Concentration After the Addition of Sodium Thiosulfate (Time = 60 Min)", "setting": "[6]; saline solution after dialyzer (venous side)", "value": 1.62, "unit": "µM"}]}
